Data set [1] can be described thus: Oral bioavailability in rat at 15 umole/kg. Type of data set: ADME, organism-based. Conditions: in vivo.
Data set [2] is described as follows: AUC in rat at 15 umole/kg, po. Type of data set: ADME, organism-based. Conditions: plasma.
Data set [3] is described as follows: AUC in rat at 5 umole/kg, iv. Format: ADME, organism-based. Conditions: plasma.
Data set [4] can be described thus: Cmax in rat at 15 umole/kg, po. Type of data set: ADME, organism-based. On the set-up: route oral. As to conditions: in vivo.
Data set [5] in a line: Volume of distribution at steady state in rat at 5 umole/kg, iv. Format: ADME, organism-based. Conditions: in vivo, read-out: Vdss.
The nature of data set [6]: Mean residence time in rat at 5 umole/kg, iv. Format: ADME, organism-based. Conditions: in vivo.
Data set [7] is described as follows: Clearance in rat at 5 umole/kg, iv. As to conditions: in vivo. Type of data set: ADME, organism-based.
The test system of a further data set is Rattus norvegicus. Description: Increase in GH level in acute anesthetized rat at 1.74 umol/kg, iv after 15min relative to control. Format: functional.
Data set [8] can be described thus: Half life in rat at 5 umole/kg, iv. Type of data set: ADME, organism-based. Conditions: in vivo.
Data set [9] in a line: Tmax in rat at 15 umole/kg, po. Type of data set: ADME, organism-based. As to conditions: in vivo.
Data set [10] is described as follows: Oral bioavailability in rat at 10 umole/kg. Type of data set: ADME, organism-based. As to conditions: in vivo.
A short description of data set [11]: Cmax in rat at 10 umole/kg, po. Type of data set: ADME, organism-based. On the set-up: route oral. As to conditions: in vivo.
A short description of data set [12]: Clearance in rat at 10 umole/kg, iv. As to conditions: in vivo. Format: ADME, organism-based.
Data set [13] in a line: AUC in rat at 10 umole/kg, iv. Format: ADME, organism-based. As to conditions: plasma.
Data set [14] can be described thus: Volume of distribution at steady state in rat at 10 umole/kg, iv. Format: ADME, organism-based. As to conditions: in vivo, read-out: Vdss.
A short description of data set [15]: AUC in rat at 10 umole/kg, po. Conditions: plasma. Format: ADME, organism-based.
Data set [16] addresses Growth hormone secretagogue receptor type 1 (Homo sapiens, UniProt Q92847). Description: Agonist activity at GHS receptor. Type of data set: functional.
The nature of data set [17]: Mean residence time in rat at 10 umole/kg, iv. Format: ADME, organism-based. Conditions: in vivo.
Data set [18] is described as follows: Tmax in rat at 10 umole/kg, po. Format: ADME, organism-based. Conditions: in vivo.
A short description of data set [19]: Half life in rat at 10 umole/kg, iv. Format: ADME, organism-based. As to conditions: in vivo, read-out: AUC (converted).

Molecules are shown by their SMILES.

Chain of Growth hormone secretagogue receptor type 1 (Q92847 whole entry): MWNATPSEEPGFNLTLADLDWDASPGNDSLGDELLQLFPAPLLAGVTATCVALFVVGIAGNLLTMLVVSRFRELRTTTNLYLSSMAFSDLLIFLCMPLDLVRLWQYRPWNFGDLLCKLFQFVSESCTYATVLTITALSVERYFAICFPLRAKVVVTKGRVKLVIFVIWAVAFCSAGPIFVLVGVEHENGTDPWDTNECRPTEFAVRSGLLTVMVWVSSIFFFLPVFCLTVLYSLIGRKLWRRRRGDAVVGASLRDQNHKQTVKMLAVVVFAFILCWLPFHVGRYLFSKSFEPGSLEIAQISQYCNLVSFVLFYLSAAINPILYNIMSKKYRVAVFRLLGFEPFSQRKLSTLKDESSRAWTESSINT

In the case of `CC(C)(N)C(=O)N[C@H](COCc1ccccc1)c1nnnn1CCOC(=O)NCCCCO`, in [1], the bioavailability (as a rule, dose-corrected exposure relative to a reference, in per cent) is 9.2%. Further, the values for the AUC in data set [2] and in data set [3] were 0.11 µM·h and 0.401 µM·h, respectively. For the same compound, the highest level in [4] (Cmax) was 68 nM. The Vd in data set [5] came to 6.4 L/kg. Also, the MRT (usually the average time that molecules of a dose stay in the body) in data set [6] turned out to be 0.5 h. For the same compound, the clearance (commonly the rate of elimination divided by the concentration) in data set [7] turned out to be 213 mL/min/kg. In the data set on Rattus norvegicus, the Activity is listed as 750%. Moreover, the half-life in data set [8] was 0.7 h. Further, in data set [9], the Tmax (as a rule, the time at which the peak concentration occurs) is 0.7 h.
In [10], `CC(C)(N)C(=O)N[C@H](CCC(F)(F)c1ccccc1)c1nnnn1CCOC(=O)NCCCCO` registered a bioavailability of 26%. For the same compound, the Cmax (usually the maximum level reached in the sampled fluid or tissue) in data set [11] worked out at 166 nM. In data set [12], the clearance was determined as 183 mL/min/kg. For the same compound, the AUC – broadly, the area under the concentration-time curve, a measure of exposure – in data set [13] was 0.901 µM·h; in data set [15] it was 0.239 µM·h. Moreover, in [14], the Vd turned out to be 16 L/kg. Moreover, in data set [16], the concentration giving a half-maximal response (EC50) (in general, the concentration giving half of the maximal effect) was 0.27 nM. In data set [17], the mean residence time MRT stood at 1.4 h. Also, the Activity in the data set with Rattus norvegicus worked out at 1934%. Besides, the time to peak (Tmax) in data set [18] was found to be 1.6 h. In addition, the half-life in [19] is 2.4 h.
Consider `CC(C)(N)C(=O)N[C@H](CCC(F)(F)c1ccccc1)c1nnnn1CCC#N`, for which a half-maximal response in [16] (EC50) required 0.9 nM.

Values taken from ChEMBL document CHEMBL1158152, “(D)-2-tert-Butoxycarbonylamino-5,5-difluoro-5-phenyl-pentanoic acid: synthesis and incorporation into the growth hormone secretagogues” (Bioorg Med Chem Lett, 2008).
